Measurements taken from US5177082A, “Huperzines and analogs” (priority 1990, dated 1993).
Several values for one entry are separate records, joined by “and”; a condition that tells them apart may be missing. Equal entries are not always repeated. Entries after “also recorded” stand apart in the source; their conditions may differ. Where two headings read alike, the source gives them in different places.

Columns and labels:
memory functions of rats = assay: Memory function of preconditioned rats after 48 hours; assay type: in vivo, rat
Method: To evaluate the impact on the memory function, preconditioned animals going through 5 shock-free runs were used as learned animals. After 48 hours the drug-free (control) animals required 14.4±8.9 shocks to become learned.

Fetus of Pregnant Mice = settings: mouse, in vivo
Description: […]. […] The latter produced various types of externally observed deformities: short tails (44/97), short and no tails (18/97), back legs reversed (13/97), open eyes (7/97), exposed brains and spina bifida (1/97), sunken noses (1/97) and cleft palates (39/40). […].

myasthenia gravis = assay: Clinical curative effects in 128 cases with myasthenia gravis; assay type: in vivo, human
Method: 128 patients with correctly diagnosed myasthenia gravis were used in the trial.
(§1) Patients affected with myasthenia gravis (MG) with typical clinical symptoms which improved after using neostigmine were the subjects for testing and verification. […] It was generally used for at least ten days and each dosage was 0.4-0.5 mg. […] The injections were all given in the morning and on the morning prior to the injections anticholinesterase drugs were discontinued. Neither the patients nor the doctors knew which drug was being injected. Later, the symptoms, the duration of the improvements, if any, which were obtained by the drugs and the side effects were recorded. Based on these factors, the relative merits of the two drugs were established.
(+) (++) and (+++) was used as the standard for the seriousness of the symptoms, (+++) was the most serious.
1. Prolapse of eyelids: the tear width of the eye after use of the drug was measured. If there was an increase of 0.2 cm above that before use of the drug, then the effect was "+", if the increase was 0.4 cm then the effect was "++" and if the increase was 0.6 cm then the effect was "+++".
2. Impairment to eyeball activity: when the eyeball was basically fixed and immovable then it was "+++", those who had reoccuring major complaints and basically normal activities were "+" and those in an intermediate state were "++".
3. Difficulties in swallowing: when swallowing was still possible but there was a feeling of difficulty or there was slowing of the speed of the intake of food then the patient was treated as "+"; when the patient could swallow but it was very slow then the patient was "++"; when the patient was basically unable to swallow the rating was "+++".
4. Systemic myasthenia: patients who were able to walk but felt very exhausted were "+"; patients who were able to stand up and walk with difficulty a short distance in the ward or corridor were "++"; and patients who could not get out of bed were "+++".

patients = assay: Clinical side effects in patients with myasthenia gravis; assay type: in vivo, human
Method: as §1

Mice = settings: mouse, in vivo
Rats = settings: rat, in vivo

C/C=C1\[C@H]2C=C(C)C[C@]1(N)c1ccc(=O)[nH]c1C2 [Huperzine A, (5R, 9R, 11E)-5-amino-11-ethylidene-5,6,9,10-tetrahydro-7-methyl-5,9-methanocycloocta[b]pyridin-2(1H)-one]
shocks required to achieve the learned state (memory) (memory functions of rats; 0.03 mg/kg, ip, after 48 hours): 6.8±7.2 shocks | memory functions (Y-maze and brightness discrimination test) (memory functions of rats; normal male rats, 1/138 of the LD50 dosage): can strengthen the memory functions | number of embryo absorptions and stillborn fetuses vs control (Fetus of Pregnant Mice): markedly greater than those of the control group | abnormal embryos (Fetus of Pregnant Mice; ip): Neither of the two methods of giving the drug resulted in abnormal embryos | Body length of fetus (Fetus of Pregnant Mice; ip, 0.019 mg/kg): 2.2 ± 0.3 cm | Body weight of fetus (Fetus of Pregnant Mice; ip, 0.019 mg/kg): 1.24 ± 0.22 g | Number absorbed (Fetus of Pregnant Mice; ip, 0.019 mg/kg): 1.0 ± 1.7 | Number of fetuses (Fetus of Pregnant Mice; ip, 0.019 mg/kg): 8 ± 3 | number of stillbirths (Fetus of Pregnant Mice; ip, 0.019 mg/kg): 0.22 ± 0.44 | Body length of fetus (Fetus of Pregnant Mice; ip, 0.038 mg/kg): 2.2 ± 0.3 cm | Body weight of fetus (Fetus of Pregnant Mice; ip, 0.038 mg/kg): 1.2 ± 0.2 g | Number absorbed (Fetus of Pregnant Mice; ip, 0.038 mg/kg): 0.5 ± 0.8 | Number of fetuses (Fetus of Pregnant Mice; ip, 0.038 mg/kg): 8 ± 2 | number of stillbirths (Fetus of Pregnant Mice; ip, 0.038 mg/kg): 0.22 ± 0.44 | Body length of fetus (Fetus of Pregnant Mice; ip, 0.08 mg/kg): 2.3 ± 0.1 cm | Body weight of fetus (Fetus of Pregnant Mice; ip, 0.08 mg/kg): 1.2 ± 0.1 g | Number absorbed (Fetus of Pregnant Mice; ip, 0.08 mg/kg): 0 | Number of fetuses (Fetus of Pregnant Mice; ip, 0.08 mg/kg): 9 ± 2 | number of stillbirths (Fetus of Pregnant Mice; ip, 0.08 mg/kg): 0.17 ± 0.39 | Body length of fetus (Fetus of Pregnant Mice; ip, 0.19 mg/kg): 2.1 ± 0.2 cm | Body weight of fetus (Fetus of Pregnant Mice; ip, 0.19 mg/kg): 1.0 ± 0.2 g | Number absorbed (Fetus of Pregnant Mice; ip, 0.19 mg/kg): 0.73 ± 1.7 | Number of fetuses (Fetus of Pregnant Mice; ip, 0.19 mg/kg): 9 ± 4 | number of stillbirths (Fetus of Pregnant Mice; ip, 0.19 mg/kg): 0.13 ± 0.35 | Body length of fetus (Fetus of Pregnant Mice; ip, 0.38 mg/kg): 2.0 ± 0.3 cm | Body weight of fetus (Fetus of Pregnant Mice; ip, 0.38 mg/kg): 1.1 ± 0.3 g | Number absorbed (Fetus of Pregnant Mice; ip, 0.38 mg/kg): 2.1 ± 2.4 | Number of fetuses (Fetus of Pregnant Mice; ip, 0.38 mg/kg): 6 ± 4 | number of stillbirths (Fetus of Pregnant Mice; ip, 0.38 mg/kg): 0.8 ± 1.1 | Body length of fetus (Fetus of Pregnant Mice; ip, 0.39 mg/kg): 1.9 ± 0.1 cm | Body weight of fetus (Fetus of Pregnant Mice; ip, 0.39 mg/kg): 0.95 ± 0.18 g | Number absorbed (Fetus of Pregnant Mice; ip, 0.39 mg/kg): 0.75 ± 1.0 | Number of fetuses (Fetus of Pregnant Mice; ip, 0.39 mg/kg): 8 ± 4 | number of stillbirths (Fetus of Pregnant Mice; ip, 0.39 mg/kg): 0.9 ± 1.1 | initial effect within 15-30 minutes, % (myasthenia gravis; 127 cases): 85.03% | initial effect within 15-30 minutes, No. of Cases (myasthenia gravis; 127 cases): 108 cases | optimal curative effect within 45-60 minutes, % (myasthenia gravis; 127 cases): 51.18% | optimal curative effect within 45-60 minutes, No. of Cases (myasthenia gravis; 127 cases): 65 cases | time of maximal effect, longest (myasthenia gravis; 127 cases): 240 min | time of maximal effect, shortest (myasthenia gravis; 127 cases): 18 min | initial effect time, average (myasthenia gravis; X ± SD, 127 cases): 21.92 ± 19.56 min and 21.92 min | time of maximal effect, average (myasthenia gravis; X ± SD, 127 cases): 50.34 ± 25.65 min and 50.34 min | average action time among the 40 cases (myasthenia gravis; cases exceeding 6 hours): 10.42 ± 5.80 h | longest action time among the 40 cases (myasthenia gravis; cases exceeding 6 hours): 24 h | shortest action time among the 40 cases (myasthenia gravis; cases exceeding 6 hours): 6 h | sustaining time of effect, shortest (myasthenia gravis; eye muscle type): 0.66 h | action time exceeded 6 hours, % (myasthenia gravis; human, in vivo): 31.64% | action time exceeded 6 hours, cases (myasthenia gravis; human, in vivo): 40 cases | action time reached 4-6 hours, % (myasthenia gravis; human, in vivo): 34.64% | action time reached 4-6 hours, cases (myasthenia gravis; human, in vivo): 44 cases | average action time (myasthenia gravis; human, in vivo): 5.94 ± 4.92 h | cases with marked effects (myasthenia gravis; human, in vivo): 71 cases | cases with marked effects, % (myasthenia gravis; human, in vivo): 55.46% | initial effect time, longest (myasthenia gravis; im injection): 222 min | physical symptom initial improvement time, longest (myasthenia gravis; im injection): 3.7 h | physical symptom initial improvement time, shortest (myasthenia gravis; im injection): 10 min | effect on myasthenia gravis condition (myasthenia gravis; im injection, 0.4 mg): effective anticholinesterase drug for treating myasthenia gravis; also recorded: able to definitely improve the myasthenia gravis condition | cases rated effective (myasthenia gravis; not marked): 56 cases | cases rated effective, % (myasthenia gravis; not marked): 43.75% | cases for which drug was effective (myasthenia gravis; of 128): 127 cases | cases for which drug was effective, % (myasthenia gravis; of 128): 99.21% | sustaining time of effect, longest (myasthenia gravis; systemic and eye muscle type): 24 h | nausea vs neostigmine (patients; X^2 =15, P<0.001): more apt to cause nausea than was neostigmine | Abdominal pains, % (patients; control group): 5.9% | Abdominal pains, number of times (patients; control group): 21 | Blurred vision, % (patients; control group): 3.2% | Blurred vision, number of times (patients; control group): 11 | Changes in the rhythm of the heart, % (patients; control group): 3.1% | Changes in the rhythm of the heart, number of times (patients; control group): 11 | Disturbed sleep, % (patients; control group): 0.8% | Disturbed sleep, number of times (patients; control group): 3 | Dizziness, % (patients; control group): 20.3% | Dizziness, number of times (patients; control group): 72 | Drooling, % (patients; control group): 3.5% | Drooling, number of times (patients; control group): 9 | Increase in the number of bowel movements, % (patients; control group): 2.8% | Increase in the number of bowel movements, number of times (patients; control group): 10 | Muscle bundle quivering, % (patients; control group): 10.4% | Muscle bundle quivering, number of times (patients; control group): 37 | Myosis, % (patients; control group): 3.0% | Myosis, number of times (patients; control group): 13 | Nausea, % (patients; control group): 12.9% | Nausea, number of times (patients; control group): 46 | Perspiring, % (patients; control group): 7.0% | Perspiring, number of times (patients; control group): 25 | Tinnitus, % (patients; control group): 3.7% | Tinnitus, number of times (patients; control group): 13 | Vomiting, % (patients; control group): 2.8% | Vomiting, number of times (patients; control group): 10 | cases with side effects (patients; control patients, 69 cases): 45 cases | cases with side effects, % (patients; control patients, 69 cases, X^2 =3.58, P>0.05): 65.21% | side effects other than nausea vs neostigmine (patients; muscle bundle quivering, dizziness, perspiring, blurred vision): lower side effects for each of the other items than neostigmine; also recorded: statistically lower than neostigmine; also recorded: lower side effects in all other areas than neostigmine | Abdominal pains, % (patients; noncontrol group, 128 cases): 6.5% | Abdominal pains, number of times (patients; noncontrol group, 128 cases): 80 | Blurred vision, % (patients; noncontrol group, 128 cases): 1.8% | Blurred vision, number of times (patients; noncontrol group, 128 cases): 22 | Changes in the rhythm of the heart, % (patients; noncontrol group, 128 cases): 1.0% | Changes in the rhythm of the heart, number of times (patients; noncontrol group, 128 cases): 13 | Disturbed sleep, % (patients; noncontrol group, 128 cases): 0.4% | Disturbed sleep, number of times (patients; noncontrol group, 128 cases): 5 | Dizziness, % (patients; noncontrol group, 128 cases): 8.1% | Dizziness, number of times (patients; noncontrol group, 128 cases): 100 | Drooling, % (patients; noncontrol group, 128 cases): 2.0% | Drooling, number of times (patients; noncontrol group, 128 cases): 25 | Increase in the number of bowel movements, % (patients; noncontrol group, 128 cases): 0.5% | Increase in the number of bowel movements, number of times (patients; noncontrol group, 128 cases): 11 | Muscle bundle quivering, % (patients; noncontrol group, 128 cases): 4.0% | Myosis, % (patients; noncontrol group, 128 cases): 1.0% | Myosis, number of times (patients; noncontrol group, 128 cases): 13 | Nausea, % (patients; noncontrol group, 128 cases): 7.8% | Nausea, number of times (patients; noncontrol group, 128 cases): 95 | Perspiring, % (patients; noncontrol group, 128 cases): 4.8% | Perspiring, number of times (patients; noncontrol group, 128 cases): 59 | Tinnitus, % (patients; noncontrol group, 128 cases): 3.1% | Tinnitus, number of times (patients; noncontrol group, 128 cases): 38 | Vomiting, % (patients; noncontrol group, 128 cases): 1.2% | Vomiting, number of times (patients; noncontrol group, 128 cases): 15 | Toxic Strength (Mice): 1.00 | symptoms after single toxic dose (Mice): typical symptoms of cholinesterase inhibitor poisoning, such as whole body muscle fiber twitching, drooling, tears, increase bronchial secretions and incontinence of feces and urine | Toxic Strength (Rats): 1.00
